Laboratory results reported in EP1247803A2, “Indolinone compounds suitable for modulation of protein kinases” (Sugen, Inc., priority 1996, dated 1998).

Key:
PDGF-R = PDGF-R (Homo sapiens, UniProt P09619); assay: PDGF-R ELISA; assay type: cell-based
Source text: A PDGF-R ELISA is described in International Patent Publication No. WO 96/40116, published December 19, 1996 by Tang et al.

MET = MET biochemical kinase assay; design: species or system human; concentration or dose not given beside the values
Procedure, shortened: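 Lysate-derived MET, or chimeric receptors, is immobilised on plates through an antibody to the human MET cytoplasmic region. Compounds are added along with kinase buffer supplying ATP and divalent metal ions, and receptor autophosphorylation is quantified by anti-phosphotyrosine ELISA.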

FLK-1 receptor = biological target: T1, FLK-1 receptor (Mus musculus, UniProt P35918); assay: FLK-1 ELISA (kinase activity of the FLK-1 receptor in FLK-1/NIH3T3 cells, VEGF stimulated); assay type: cell-based; design: concentration or dose not given beside the values
T1 construct: expressed in transfected cells; host or cells: NIH3T3 C7#3
Procedure, shortened: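 An ELISA using affinity-purified rabbit anti-FLK-1 antiserum on anti-rabbit IgG-coated plates measured VEGF-stimulated FLK-1 kinase activity. NIH3T3 C7#3 cells carrying FLK-1 were serum-starved (0.1% FBS) overnight, then exposed to compound (final 1:200 dilution, 0.5% DMSO) for two hours at 37 °C.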

T1 sequence (P35918 20-1345): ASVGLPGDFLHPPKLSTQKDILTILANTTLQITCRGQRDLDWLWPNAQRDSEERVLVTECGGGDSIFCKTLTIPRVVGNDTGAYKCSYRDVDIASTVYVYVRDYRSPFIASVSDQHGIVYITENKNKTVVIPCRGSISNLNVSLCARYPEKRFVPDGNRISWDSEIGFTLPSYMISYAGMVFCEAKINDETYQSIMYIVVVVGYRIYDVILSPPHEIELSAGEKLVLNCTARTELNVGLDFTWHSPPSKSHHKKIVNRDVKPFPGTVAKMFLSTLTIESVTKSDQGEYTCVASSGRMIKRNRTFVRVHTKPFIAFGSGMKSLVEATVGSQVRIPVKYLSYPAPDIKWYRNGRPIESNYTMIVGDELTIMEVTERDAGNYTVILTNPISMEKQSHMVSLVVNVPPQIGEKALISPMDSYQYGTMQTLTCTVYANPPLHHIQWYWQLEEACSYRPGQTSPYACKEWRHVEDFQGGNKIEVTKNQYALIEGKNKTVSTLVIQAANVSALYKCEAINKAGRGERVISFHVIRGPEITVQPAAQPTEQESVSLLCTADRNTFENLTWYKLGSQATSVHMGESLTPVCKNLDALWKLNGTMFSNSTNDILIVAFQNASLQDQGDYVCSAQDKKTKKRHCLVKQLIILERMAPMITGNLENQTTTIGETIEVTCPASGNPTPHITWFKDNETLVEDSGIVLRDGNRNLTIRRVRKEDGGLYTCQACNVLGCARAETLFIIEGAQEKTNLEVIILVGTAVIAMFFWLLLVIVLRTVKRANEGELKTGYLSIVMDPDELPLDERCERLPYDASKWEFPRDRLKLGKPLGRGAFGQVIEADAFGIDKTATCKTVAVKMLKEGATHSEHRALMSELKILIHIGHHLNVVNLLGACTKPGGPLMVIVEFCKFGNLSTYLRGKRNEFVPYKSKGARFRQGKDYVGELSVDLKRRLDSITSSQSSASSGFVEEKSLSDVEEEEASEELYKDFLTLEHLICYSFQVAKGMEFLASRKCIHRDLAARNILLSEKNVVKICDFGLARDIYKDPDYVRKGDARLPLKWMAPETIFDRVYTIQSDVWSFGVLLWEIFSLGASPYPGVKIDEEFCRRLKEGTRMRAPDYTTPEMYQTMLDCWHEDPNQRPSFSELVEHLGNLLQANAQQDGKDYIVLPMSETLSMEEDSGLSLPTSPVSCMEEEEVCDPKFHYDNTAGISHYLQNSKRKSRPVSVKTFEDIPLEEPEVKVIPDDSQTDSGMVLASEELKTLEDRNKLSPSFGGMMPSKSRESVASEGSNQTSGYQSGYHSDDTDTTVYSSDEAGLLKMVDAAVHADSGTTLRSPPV
Chain of PDGF-R (P09619 33-1106, species assumed): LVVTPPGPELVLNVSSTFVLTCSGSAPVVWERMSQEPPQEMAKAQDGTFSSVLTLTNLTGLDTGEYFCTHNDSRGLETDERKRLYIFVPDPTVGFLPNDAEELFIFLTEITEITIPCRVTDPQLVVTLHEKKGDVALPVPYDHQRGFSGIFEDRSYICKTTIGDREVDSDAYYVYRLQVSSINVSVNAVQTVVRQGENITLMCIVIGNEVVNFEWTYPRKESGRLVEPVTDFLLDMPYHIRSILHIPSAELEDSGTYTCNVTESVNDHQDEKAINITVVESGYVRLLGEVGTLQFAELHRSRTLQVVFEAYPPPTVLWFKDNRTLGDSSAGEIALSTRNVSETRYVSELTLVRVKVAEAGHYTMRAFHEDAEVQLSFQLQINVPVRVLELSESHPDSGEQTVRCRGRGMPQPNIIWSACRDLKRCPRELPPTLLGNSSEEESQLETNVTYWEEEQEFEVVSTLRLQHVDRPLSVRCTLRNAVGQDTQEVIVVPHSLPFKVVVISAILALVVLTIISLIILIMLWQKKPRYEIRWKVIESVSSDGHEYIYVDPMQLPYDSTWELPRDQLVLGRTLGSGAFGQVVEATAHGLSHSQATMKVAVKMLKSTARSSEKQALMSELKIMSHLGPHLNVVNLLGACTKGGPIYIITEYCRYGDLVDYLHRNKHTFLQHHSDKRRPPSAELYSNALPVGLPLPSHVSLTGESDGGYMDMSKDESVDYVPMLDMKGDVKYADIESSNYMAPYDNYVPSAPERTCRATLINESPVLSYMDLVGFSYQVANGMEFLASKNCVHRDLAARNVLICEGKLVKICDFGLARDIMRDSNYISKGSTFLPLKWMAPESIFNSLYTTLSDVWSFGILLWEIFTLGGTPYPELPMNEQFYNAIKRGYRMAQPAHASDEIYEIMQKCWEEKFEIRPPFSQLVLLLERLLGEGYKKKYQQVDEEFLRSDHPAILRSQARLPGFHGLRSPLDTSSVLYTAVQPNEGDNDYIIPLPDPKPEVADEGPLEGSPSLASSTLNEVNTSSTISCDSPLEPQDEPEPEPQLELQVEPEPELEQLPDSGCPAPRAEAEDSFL

Compound	PDGF Kinase %Inhibition (PDGF-R) [%]	Met Kinase % Inhibition (MET) [%]	Fik Kinase %Inhibition (FLK-1 receptor) [%]
Cc1c(Br)ccc2c1C(=CC1C=CCCC1)C(=O)N2 (stereo not shown) [10729/C11]	-17.4	41.3	10.4
CSc1ccc(C=C2C(=O)Nc3ccc(I)cc32)cc1 [10729/B04]	-22.7	43.8	0.1
O=C1Nc2ccc(CCCl)cc2C1=Cc1cc(C(F)(F)F)ccc1F [10728/G08]	-11.9	42.3	21.4
O=C1Nc2ccc(I)cc2C1=Cc1cccnc1 [10729/B08]	-13.6	66.0	-14.7
Cc1ccsc1C=C1C(=O)Nc2ccc(I)cc21 [10729/B05]	-25.7	51.0	-5.2
COc1cccc(OC)c1C=C1C(=O)Nc2ccc(S(=O)(=O)Nc3ccc(C(F)(F)F)cc3)cc21 [10728/E03]	12.0	11.9	13.2
COc1cc(C=C2C(=O)Nc3ccc(S(=O)(=O)Nc4ccc(C(F)(F)F)cc4)cc32)cc2c1OCO2 [10728/E11]	8.9	53.1	16.3
CCOC(=O)c1c(C)[nH]c(C=C2C(=O)Nc3ccc(I)cc32)c1C [10718/B02]	–	52.9	7.0
Cc1c(Br)ccc2c1C(=Cc1ccncc1)C(=O)N2 [10729/C09]	-34.8	60.4	-26.4
Cc1ccsc1C=C1C(=O)Nc2c(Br)cc(Br)cc21 [10729/A05]	-6.8	38.8	-17.7
COc1ccc2ccccc2c1C=C1C(=O)Nc2ccc(Br)c(C)c21 [10729/C02]	9.1	18.2	6.0
COc1ccc2ccccc2c1C=C1C(=O)Nc2ccc(I)cc21 [10729/B02]	-10.2	77.2	13.8
COc1ccc(OC)c(C=C2C(=O)Nc3ccc(S(=O)(=O)NN4CCOCC4)cc32)c1 [10728/F02]	7.2	25.6	2.9
O=C1Nc2ccc(S(=O)(=O)Nc3ccc(C(F)(F)F)cc3)cc2C1=Cc1cc(C(F)(F)F)ccc1F [10728/E08]	29.4	46.3	15.2
O=C1Nc2ccc(I)cc2C1=CC1C=CCCC1 (stereo not shown) [10729/B11]	4.2	36.6	7.8
COc1cc(N(C)C)ccc1C=C1C(=O)Nc2ccc(S(=O)(=O)Nc3ccc(C(F)(F)F)cc3)cc21 [10728/E05]	5.8	53.4	17.4
O=C(O)COc1ccccc1C=C1C(=O)Nc2ccc(CCCl)cc21 [10728/G10]	-0.8	27.9	10.4
O=C1Nc2ccc(S(=O)(=O)Nc3ccc(C(F)(F)F)cc3)cc2C1=Cc1c(F)cccc1C(F)(F)F [10728/E09]	22.3	40.0	9.0
COc1ccc(C=C2C(=O)Nc3ccc(S(=O)(=O)Nc4ccc(C(F)(F)F)cc4)cc32)c2ccccc12 [10729/E03]	29.2	27.5	6.9
COc1ccc(OC)c(C=C2C(=O)Nc3ccc(CCCl)cc32)c1 [10728/G02]	0.9	7.1	2.3
Cc1c(Br)ccc2c1C(=Cc1cccc(Oc3ccccc3)c1)C(=O)N2 [10729/C06]	3.1	15.2	3.8

Compound	PDGF Kinase %Inhibition (PDGF-R) [%]	Met Kinase % Inhibition (MET) [%]	Fik Kinase %Inhibition (FLK-1 receptor) [%]
CNS(=O)(=O)c1ccc2c(c1)C(=Cc1sccc1C)C(=O)N2 [10729/D05]	2.3	28.1	2.2
CNS(=O)(=O)c1ccc2c(c1)C(=Cc1ccc(SC)cc1)C(=O)N2 [10729/D04]	-12.8	33.1	-5.7
O=C1Nc2c(Br)cc(Br)cc2C1=Cc1ccco1 [10718/A10]	–	77.9	23.4
COc1ccc(C=C2C(=O)Nc3ccc(I)cc32)c2ccccc12 [10729/B03]	-9.4	57.3	11.2
O=C1Nc2c(Br)cc(Br)cc2C1=Cc1cccnc1 [10729/A08]	-23.4	48.1	-13.3
CNS(=O)(=O)c1ccc2c(c1)C(=Cc1cc(C(F)(F)F)ccc1F)C(=O)N2 [10728/D08]	2.7	34.7	13.5
O=C(O)COc1ccccc1C=C1C(=O)Nc2ccc(S(=O)(=O)Nc3ccc(C(F)(F)F)cc3)cc21 [10728/E10]	13.8	57.2	24.7
CNS(=O)(=O)c1ccc2c(c1)C(=Cc1cccc(Oc3ccccc3)c1)C(=O)N2 [10729/D06]	2.7	30.2	0.2
CNS(=O)(=O)c1ccc2c(c1)C(=Cc1ccccn1)C(=O)N2 [10729/D07]	-20.0	25.5	-15.3
COc1ccc(C=C2C(=O)Nc3ccc(Br)c(C)c32)c2ccccc12 [10729/C03]	13.7	13.5	11.0
Cc1c(O)ccc(C=C2C(=O)Nc3c(Br)cc(Br)cc32)c1O [10718/A09]	–	67.7	-18.4
O=C1Nc2ccc(S(=O)(=O)Nc3ccc(C(F)(F)F)cc3)cc2C1=Cc1cccc(Oc2ccccc2)c1 [10729/E06]	24.7	-0.7	12.1
COc1ccc2ccccc2c1C=C1C(=O)Nc2ccc(S(=O)(=O)Nc3ccc(C(F)(F)F)cc3)cc21 [10729/E02]	28.4	11.7	26.6
COc1cc(C=C2C(=O)Nc3ccc(CCCl)cc32)cc2c1OCO2 [10728/G11]	-12.8	71.4	3.2
O=C1Nc2c(Br)cc(Br)cc2C1=Cc1cccc(Oc2ccccc2)c1 [10729/A06]	-8.6	29.8	-10.9
CSc1ccc(C=C2C(=O)Nc3ccc(S(=O)(=O)Nc4ccc(C(F)(F)F)cc4)cc32)cc1 [10729/E04]	26.5	9.8	9.7
O=C1Nc2c(Br)cc(Br)cc2C1=Cc1ccc([N+](=O)[O-])o1 [10718/A11]	–	58.9	2.7
O=C1Nc2ccc(I)cc2C1=Cc1ccc2ccccc2c1O [10718/B04]	–	63.9	11.8
Cc1ccc(C=C2C(=O)Nc3c(Br)cc(Br)cc32)s1 [10717/A07]	–	29.2	-6.4
CCOC(=O)c1cc(C=C2C(=O)Nc3ccc(I)cc32)oc1C [10718/B06]	–	78.4	16.5
COc1cc(Br)c(O)c(C=C2C(=O)Nc3ccc(I)cc32)c1 [10718/B03]	–	77.9	1.7
